Results reported in patent publication USRE42890E1, “Furazanobenzimidazoles” (Basilea Pharmaceutica AG, priority 2003, dated 2011).
Where two headings read alike, the source gives them in different places.

Experiments:
[1] = system: Jurkat; assay: MTS proliferation assay, Jurkat; type: cell-based, human; conditions: 72 h incubation, read-out: MTS proliferation assay IC 50 Jurkat
Summary of the method: (§1)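 Absorbance at 492 nm after 3 h with MTS reagent gave the proliferation read-out. Before that, cells in RPMI-1640 complete medium (5% or 10% FCS) were treated 72 h with compound at four final concentrations, 0.3 to 10 μM.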

[2] = system: Jily; assay: MTS proliferation assay, Jily; type: cell-based; conditions: 72 h incubation, read-out: MTS proliferation assay IC 50 Jily
Summary of the method: (§2)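 Read-out: MTS absorbance at 492 nm after 3 h reagent incubation. Before that, cells grew 72 h at 37° C/7.5% CO2 with test compounds at final concentrations of 10 μM, 3 μM, 1 μM and 0.3 μM, added 24 h post-seeding.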

[3] = system: HT1080; assay: MTS proliferation assay, HT1080; type: cell-based, human; conditions: HT1080, 72 h incubation, read-out: MTS proliferation assay IC 50 HT1080
Summary of the method: as §1

[4] = system: HeLa; assay: MTS proliferation assay, HeLa; type: cell-based, human; conditions: 72 h incubation, read-out: MTS proliferation assay IC 50 HeLa
Summary of the method: as §1

[5] = system: MRC5; assay: MTS proliferation assay, MRC5; type: cell-based; conditions: MRC5, 72 h incubation, read-out: MTS proliferation assay IC 50 MRC5
Summary of the method: as §2

[6] = system: Jurkat; assay: PI staining for cell cycle distribution, Jurkat; type: cell-based, human; parameters: key: 0: no effect; 1: weak effect; 2: strong effect; conditions: Jurkat 3 μM, 24 h
Protocol: (§3) Cell lines are cultured in RPMI-1640 tissue culture medium containing either 5% or 10% fetal calf serum, 0.05 mM 2-mercaptoethanol, 2 mM glutamine and penicillin/streptomycin 50 μg/ml (complete medium) (Sigma, Buchs, Switzerland). General growth conditions are 37° C. and 7.5% CO2.
(§4) The following human cell lines (either EGFP transfected or not) are being used: HeLa (ATCC: CCL-2), KB (ATCC: CCL-17), MCF7 (ATCC: HTB-22), SK-BR-3 (ATCC: HTB-30), SK-Mel 1 (ATCC: HTB-67), SK-Mel 28 (ATCC: HTB-72), PC-3 (ATCC: CRL-1435), SW 480 (ATCC: CCL-228), NCl-H460 (ATCC: HTB-177), NCl-H1792 (ATCC: CRL-5895), HT1080 (ATCC: CCL-21), Jurkat (ATCC: TIB-152), Ramos (ATCC: CRL-1596), Raji (ATCC: CCL-86), H9 (ATCC: HTB-176), Hut78 (ATCC: TIB-161), K562 (ATCC: CCL 243), HL-60 (ATCC: CCL 240), U-87MG (ATCC: HTB-14), HepG2 (ATCC: HB-8065), U-2 OS (ATCC: HTB-96), Saos-2 (ATCC: HTB-85), U937 (ATCC: CRL 1593), Hs 578T (ATCC: HTB 126), HBL-100 (ATCC: HTB 124), Molt-4 (ATCC: CRL 1582).
(§5) 1-2*10^5 cells are seeded into 24 well tissue culture plates and incubated for 24 h prior to compound addition. Compounds are added for 24 h in a final concentration of 3 μM or 10 μM. Adherent cells are harvested by trypsinization. The cell suspensions are fixed by adding 2 parts ice cold ethanol 100% while vortexing. Then the samples are stored for >2 h at −20° C. Subsequently the cells are washed with PBS once and resuspended in 250 μl PBS containing 50 μg/ml PI (Calbiochem # 537059), then the samples are incubated at 37° C. for 30 minutes and subsequently analyzed on a FACSCalibur™ monitoring linear PI fluorescence activity on FL2. The readout allows the detection of a possible direct or indirect influence of the tested compounds on the cell cycle. The following events can occur: a) Generation of a subG1 peak indicative for DNA fragmentation, b) increase of the cell population arrested in G2M phase. Both events are scored by 1 for weak and 2 for strong occurrence. 0 indicates no occurrence at all.

[7] = system: HeLa; assay: PI staining for cell cycle distribution, HeLa; type: cell-based, human; parameters: key: 0: no effect; 1: weak effect; 2: strong effect; conditions: HeLa 10 μM, 24 h
Protocol: as §3, §4, §5

[8] = system: adherent cells or suspension cells; assay: Hoechst 33342 nuclear staining (fraction of apoptotic nuclei); type: cell-based; parameters: key: 0 relating to no activity; 1 relating to weak activity comprising less than 70% of the cells; score 2 relating to strong activity comprising more than 70% of the cells
[9] = cell population arrested in G2M phase
[10] = subG1 peak indicative for DNA fragmentation

SMILES	IC50 [2]	Hoechst 33342 nuclear staining score ([8]; H460, conc 0.01 μm)	Hoechst 33342 nuclear staining score ([8]; H460, conc 0.1 μm)	Hoechst 33342 nuclear staining score ([8]; H460, conc 1 μm)	Hoechst 33342 nuclear staining score ([8]; HeLa, conc 0.01 μm)	Hoechst 33342 nuclear staining score ([8]; HeLa, conc 0.1 μm)	Hoechst 33342 nuclear staining score ([8]; HeLa, conc 1 μm)	Hoechst 33342 nuclear staining score ([8]; Jily, conc 0.01 μm)	Hoechst 33342 nuclear staining score ([8]; Jily, conc 0.1 μm)	Hoechst 33342 nuclear staining score ([8]; Jily, conc 1 μm)	Hoechst 33342 nuclear staining score ([8]; Jurkat, conc 0.01 μm)	Hoechst 33342 nuclear staining score ([8]; Jurkat, conc 0.1 μm)	Hoechst 33342 nuclear staining score ([8]; Jurkat, conc 1 μm)	Hoechst 33342 nuclear staining score ([8]; MRC5, conc 0.01 μm)	Hoechst 33342 nuclear staining score ([8]; MRC5, conc 0.1 μm)	Hoechst 33342 nuclear staining score ([8]; MRC5, conc 1 μm)	Hoechst 33342 nuclear staining score ([8]; PBLs, conc 0.01 μm)	Hoechst 33342 nuclear staining score ([8]; PBLs, conc 0.1 μm)	Hoechst 33342 nuclear staining score ([8]; PBLs, conc 1 μm)	also measured
Nc1nonc1-c1nc2ccccc2n1CC(=O)c1ccc(Cl)cc1 [Example 16]	10 to 100 nM	0	2 (score 2 relating to strong activity comprising more than 70% of the cells)	2 (score 2 relating to strong activity comprising more than 70% of the cells)	0	2 (score 2 relating to strong activity comprising more than 70% of the cells)	2 (score 2 relating to strong activity comprising more than 70% of the cells)	0	2 (score 2 relating to strong activity comprising more than 70% of the cells)	2 (score 2 relating to strong activity comprising more than 70% of the cells)	0	2 (score 2 relating to strong activity comprising more than 70% of the cells)	2 (score 2 relating to strong activity comprising more than 70% of the cells)	0	2 (score 2 relating to strong activity comprising more than 70% of the cells)	2 (score 2 relating to strong activity comprising more than 70% of the cells)	0	0	0	IC50 [1]: 100 to 1000 nM; IC50 [3]: 10 to 100 nM; IC50 [4]: 100 to 1000 nM; IC50 [5]: 10 to 100 nM; PI staining for cell cycle distribution, G2M [6, 9]: 0; PI staining for cell cycle distribution, subG1 [6, 10]: 0; PI staining for cell cycle distribution, G2M [7, 9]: 2; PI staining for cell cycle distribution, subG1 [7, 10]: 0
Nc1nonc1-c1nc2ccccc2n1CC(=O)c1ccc(Cl)c([N+](=O)[O-])c1 [Example 66, 4-[1-(4-Chloro-3-nitrophenacyl)-1H-benzimidazol-2-yl]-furazan-3-ylamine]	100 to 1000 nM	0	0	2 (score 2 relating to strong activity comprising more than 70% of the cells)	0	0	2 (score 2 relating to strong activity comprising more than 70% of the cells)	0	0	2 (score 2 relating to strong activity comprising more than 70% of the cells)	0	1 (1 relating to weak activity comprising less than 70% of the cells)	2 (score 2 relating to strong activity comprising more than 70% of the cells)	0	0	1 (1 relating to weak activity comprising less than 70% of the cells)	0	0	0	IC50 ([1]; Homo sapiens): 10 to 100 nM; IC50 ([3]; Homo sapiens, HT-1080): 100 to 1000 nM; IC50 ([4]; Homo sapiens): 100 to 1000 nM; IC50 ([5]; Homo sapiens): 100 to 1000 nM; melting point: 198 to 200 °C
